According to PubChem BioAssay AID1963963 (Molecular Pharmacology Branch, DTP, NCI, 2024):
pIC50: −log10 of the molar value. Blank lines part the entries; values can stand above or below the compound they belong to.

Tested on: 958667-338-R-J2-PDC tumor spheroids viability
Test: Anticancer human tumor 958667-338-R-J2-PDC patient-derived colon adenocarcinoma cell line growth inhibition [PI3K]
Settings: spheroids with HUVEC and MSC; for pIC50: curve of first compound; for viability, T/C: stronger effect = lower value
Procedure, shortened: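 Three cell types, namely tumor cells, endothelial cells and mesenchymal stem cells, formed each spheroid. Combinations with four PI3K inhibitors were screened at clinically achievable concentrations decreasing by half-log, and spheroid viability was recorded.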

[1] = second compound 0.0316 µM, first compound 0.0316 µM
[2] = second compound 0.0316 µM, first compound 0.1 µM
[3] = second compound 0.0316 µM, first compound 0.316 µM
[4] = second compound 0.0316 µM, first compound 1 µM
[5] = second compound 0.0316 µM, first compound 3.16 µM
[6] = second compound 0.0316 µM, first compound 10 µM
[7] = second compound 0.1 µM, first compound 0.0316 µM
[8] = second compound 0.1 µM, first compound 0.1 µM
[9] = second compound 0.1 µM, first compound 0.316 µM
[10] = second compound 0.1 µM, first compound 1 µM
[11] = second compound 0.1 µM, first compound 3.16 µM
[12] = second compound 0.1 µM, first compound 10 µM
[13] = second compound 0.316 µM, first compound 0.0316 µM
[14] = second compound 0.316 µM, first compound 0.1 µM
[15] = second compound 0.316 µM, first compound 0.316 µM
[16] = second compound 0.316 µM, first compound 1 µM
[17] = second compound 0.316 µM, first compound 3.16 µM
[18] = second compound 0.316 µM, first compound 10 µM
[19] = second compound 1 µM, first compound 0.0316 µM
[20] = second compound 1 µM, first compound 0.1 µM
[21] = second compound 1 µM, first compound 0.316 µM
[22] = second compound 1 µM, first compound 1 µM
[23] = second compound 1 µM, first compound 3.16 µM
[24] = second compound 1 µM, first compound 10 µM
[25] = second compound 3.16 µM, first compound 0.0316 µM
[26] = second compound 3.16 µM, first compound 0.1 µM
[27] = second compound 3.16 µM, first compound 0.316 µM
[28] = second compound 3.16 µM, first compound 1 µM
[29] = second compound 3.16 µM, first compound 3.16 µM
[30] = second compound 3.16 µM, first compound 10 µM
[31] = second compound 10 µM, first compound 0.0316 µM
[32] = second compound 10 µM, first compound 0.1 µM
[33] = second compound 10 µM, first compound 0.316 µM
[34] = second compound 10 µM, first compound 1 µM
[35] = second compound 10 µM, first compound 3.16 µM
[36] = second compound 10 µM, first compound 10 µM
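Also: spheroids exposed to compounds for seven days before readout.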

pIC50 (second compound 0.0316 µM): < 5.00
pIC50 (second compound 0.1 µM): < 5.00
pIC50 (second compound 0.316 µM): < 5.00
pIC50 (second compound 1 µM): < 5.00
pIC50 (second compound 3.16 µM): < 5.00
pIC50 (second compound 10 µM): < 5.00
Compound: CC1(C)CCC(CN2CCN(c3ccc(C(=O)NS(=O)(=O)c4ccc(NCC5CCOCC5)c([N+](=O)[O-])c4)c(Oc4cnc5[nH]ccc5c4)c3)CC2)=C(c2ccc(Cl)cc2)C1 + CC(Nc1ncnc2nc[nH]c12)c1cc2cccc(Cl)c2c(=O)n1-c1ccccc1
viability, T/C [1]: 107%
viability, T/C [2]: 93.6%
viability, T/C [3]: 101%
viability, T/C [4]: 93%
viability, T/C [5]: 119%
viability, T/C [6]: 69.9%
viability, T/C [7]: 96.3%
viability, T/C [8]: 102%
viability, T/C [9]: 90.6%
viability, T/C [10]: 94.6%
viability, T/C [11]: 107%
viability, T/C [12]: 51.2%
viability, T/C [13]: 101%
viability, T/C [14]: 106%
viability, T/C [15]: 104%
viability, T/C [16]: 116%
viability, T/C [17]: 105%
viability, T/C [18]: 80.3%
viability, T/C [19]: 90.1%
viability, T/C [20]: 96.2%
viability, T/C [21]: 100%
viability, T/C [22]: 100%
viability, T/C [23]: 101%
viability, T/C [24]: 76.8%
viability, T/C [25]: 93.4%
viability, T/C [26]: 108%
viability, T/C [27]: 94.4%
viability, T/C [28]: 93.1%
viability, T/C [29]: 99.9%
viability, T/C [30]: 54.5%
viability, T/C [31]: 93.2%
viability, T/C [32]: 84.3%
viability, T/C [33]: 101%
viability, T/C [34]: 88%
viability, T/C [35]: 97.7%
viability, T/C [36]: 68.2%

pIC50 (second compound 0.0316 µM): 5.10
pIC50 (second compound 0.1 µM): 5.19
pIC50 (second compound 0.316 µM): 5.20
pIC50 (second compound 1 µM): 5.20
pIC50 (second compound 3.16 µM): 5.18
pIC50 (second compound 10 µM): 5.21
Compound: CCCS(=O)(=O)Nc1ccc(F)c(C(=O)c2c[nH]c3ncc(-c4ccc(Cl)cc4)cc23)c1F + CC(Nc1ncnc2nc[nH]c12)c1cc2cccc(Cl)c2c(=O)n1-c1ccccc1
viability, T/C [1]: 121%
viability, T/C [2]: 97.5%
viability, T/C [3]: 99.8%
viability, T/C [4]: 116%
viability, T/C [5]: 131%
viability, T/C [6]: 34.7%
viability, T/C [7]: 95.8%
viability, T/C [8]: 91.7%
viability, T/C [9]: 101%
viability, T/C [10]: 99.9%
viability, T/C [11]: 133%
viability, T/C [12]: 17.6%
viability, T/C [13]: 82.2%
viability, T/C [14]: 79.8%
viability, T/C [15]: 92.4%
viability, T/C [16]: 104%
viability, T/C [17]: 134%
viability, T/C [18]: 18.5%
viability, T/C [19]: 102%
viability, T/C [20]: 107%
viability, T/C [21]: 121%
viability, T/C [22]: 89.5%
viability, T/C [23]: 101%
viability, T/C [24]: 16.6%
viability, T/C [25]: 121%
viability, T/C [26]: 119%
viability, T/C [27]: 83.4%
viability, T/C [28]: 116%
viability, T/C [29]: 117%
viability, T/C [30]: 16.2%
viability, T/C [31]: 79.5%
viability, T/C [32]: 99%
viability, T/C [33]: 103%
viability, T/C [34]: 91.9%
viability, T/C [35]: 99.6%
viability, T/C [36]: 17.9%
